# ChEMBL document CHEMBL3414465, “Discovery of novel P1 groups for coagulation factor VIIa inhibition using fragment-based screening” (J Med Chem, 2015)
# System: Plasma
# Assay: Anticoagulant activity in factor VII-deficient human plasma assessed as concentration required to prolong clotting time by two-fold
# Format: functional
# Details: not given
row,SMILES,2PT [µM]
1,COC(=O)Nc1ccc(S(=O)(=O)C(C)C)c([C@H]2CCCN2C(=O)[C@H](Nc2ccc3c(c2)C(=O)NCC3)c2cc(OC)c(OC)cc2F)c1,160

# Target: Coagulation factor VII/tissue factor (Homo sapiens, UniProt P08709)
# Sequence (P08709 61-212 limits assumed): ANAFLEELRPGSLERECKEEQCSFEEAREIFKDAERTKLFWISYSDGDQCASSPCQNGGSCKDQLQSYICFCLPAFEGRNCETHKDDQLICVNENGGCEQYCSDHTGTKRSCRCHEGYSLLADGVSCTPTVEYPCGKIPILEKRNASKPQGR
# Sequence (P08709 213-466 limits assumed): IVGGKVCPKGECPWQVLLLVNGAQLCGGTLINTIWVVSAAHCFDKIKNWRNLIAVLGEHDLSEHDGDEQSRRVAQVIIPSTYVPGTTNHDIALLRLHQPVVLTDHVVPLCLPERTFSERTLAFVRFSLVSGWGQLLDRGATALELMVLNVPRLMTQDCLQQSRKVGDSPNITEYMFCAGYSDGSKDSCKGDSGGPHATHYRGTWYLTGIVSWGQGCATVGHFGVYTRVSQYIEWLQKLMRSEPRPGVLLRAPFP
# Sequence (P13726 33-295 partner limits assumed): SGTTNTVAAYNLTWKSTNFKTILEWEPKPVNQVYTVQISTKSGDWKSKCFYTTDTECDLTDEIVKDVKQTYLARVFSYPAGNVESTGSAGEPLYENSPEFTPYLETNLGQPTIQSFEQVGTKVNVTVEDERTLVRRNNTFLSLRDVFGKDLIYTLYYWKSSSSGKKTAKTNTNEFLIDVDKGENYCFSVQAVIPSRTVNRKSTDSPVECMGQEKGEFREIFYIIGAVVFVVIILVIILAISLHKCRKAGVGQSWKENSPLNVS
# Assay: Inhibition of human soluble tissue factor/factor VIIa expressed in Origami B (DE3) using D-Ile-Pro-Arg-pNA as substrate after 30 mins by spectrophotometric analysis
# Details: not given
row,SMILES,Ki [mM]
1,Clc1ccc2[nH]nnc2c1,8.7
2,COc1cc(Cl)ccc1O,16
3,Clc1ccc2[nH]ccc2c1,4.3
4,N=C(N)c1ccccc1 [BENZAMIDINE],0.24
5,OCc1ccc(Cl)cc1Cl [DICHLOROBENZYL ALCOHOL],13
6,NC(=O)c1cccnc1 [NIACINAMIDE],8

# Further lines, results first:
row,Ki [mM],SMILES
1,16,CC(O)c1cccc2ccccc12 (centres undefined)
2,13,COc1cc(Br)ccc1O
3,13,COC(=O)c1cccc2[nH]ccc12
4,5.7,O=C(O)c1c[nH]c2ccc(Cl)cc12
5,0.00013,COC(=O)Nc1ccc(S(=O)(=O)C(C)C)c([C@H]2CCCN2C(=O)[C@H](Nc2ccc3c(c2)C(=O)NCC3)c2cc(OC)c(OC)cc2F)c1
6,3.5,O=C(O)c1cc2cc(Cl)ccc2[nH]1 [5-CHLOROINDOLE-2-CARBOXYLIC ACID]

# System: not listed separately
# Assay: Permeability of the compound after 4 hrs by PAMPA
# Format: ADME
# Details: read-out: permeability
row,Papp at 4 h [×10⁻⁶ cm/s],SMILES
1,1.8,COC(=O)Nc1ccc(S(=O)(=O)C(C)C)c([C@H]2CCCN2C(=O)[C@H](Nc2ccc3c(c2)C(=O)NCC3)c2cc(OC)c(OC)cc2F)c1
